Results taken from patent US20260138961A1, “MODULATORS OF MITOCHONDRIAL DNA REPLICATION” (Pretzel Therapeutics, Inc., priority 2022, published 2026).

Each molecule was assayed against T1, POLγA:A467T (Homo sapiens, UniProt P54098, A467T) (assay: DNA polymerization assay, POLγA:A467T mutant). Settings: stimulation of polymerase activity, primed M13mp18 ssDNA, 37° C. 2 hours; read-out: A467T AC50.
T1 sequence (P54098 1-1239 A467T): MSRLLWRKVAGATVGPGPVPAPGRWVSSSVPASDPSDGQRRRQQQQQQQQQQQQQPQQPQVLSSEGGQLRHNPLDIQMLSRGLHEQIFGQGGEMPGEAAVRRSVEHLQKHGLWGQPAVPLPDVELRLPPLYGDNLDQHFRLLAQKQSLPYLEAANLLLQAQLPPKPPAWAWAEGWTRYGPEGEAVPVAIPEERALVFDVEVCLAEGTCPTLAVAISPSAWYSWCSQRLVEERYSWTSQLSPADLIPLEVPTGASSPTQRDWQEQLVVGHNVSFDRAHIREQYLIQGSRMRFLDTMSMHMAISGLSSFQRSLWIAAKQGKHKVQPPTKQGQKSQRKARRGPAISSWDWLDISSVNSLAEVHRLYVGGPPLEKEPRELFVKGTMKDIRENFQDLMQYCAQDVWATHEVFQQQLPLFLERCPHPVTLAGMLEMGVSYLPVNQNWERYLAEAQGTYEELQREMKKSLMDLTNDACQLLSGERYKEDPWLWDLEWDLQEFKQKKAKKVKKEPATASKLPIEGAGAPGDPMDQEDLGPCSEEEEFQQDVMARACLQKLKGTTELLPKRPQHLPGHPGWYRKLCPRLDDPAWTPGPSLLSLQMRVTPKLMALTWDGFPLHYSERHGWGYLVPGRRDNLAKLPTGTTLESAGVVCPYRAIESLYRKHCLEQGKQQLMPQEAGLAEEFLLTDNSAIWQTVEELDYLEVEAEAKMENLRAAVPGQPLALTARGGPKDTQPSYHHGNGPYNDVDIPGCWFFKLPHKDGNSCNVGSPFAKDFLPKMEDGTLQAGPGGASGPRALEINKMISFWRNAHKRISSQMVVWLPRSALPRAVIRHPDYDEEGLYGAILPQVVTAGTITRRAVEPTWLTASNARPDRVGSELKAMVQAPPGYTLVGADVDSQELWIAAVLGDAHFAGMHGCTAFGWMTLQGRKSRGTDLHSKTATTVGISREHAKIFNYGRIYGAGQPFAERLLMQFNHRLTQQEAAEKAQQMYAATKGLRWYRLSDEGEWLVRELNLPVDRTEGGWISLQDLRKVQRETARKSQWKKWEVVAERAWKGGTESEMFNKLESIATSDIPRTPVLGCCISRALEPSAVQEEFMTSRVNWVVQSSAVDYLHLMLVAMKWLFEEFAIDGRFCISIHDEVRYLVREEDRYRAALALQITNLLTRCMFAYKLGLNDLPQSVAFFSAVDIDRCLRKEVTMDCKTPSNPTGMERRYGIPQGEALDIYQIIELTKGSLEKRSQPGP
T1 sequence (Q9UHN1 1-485 partner): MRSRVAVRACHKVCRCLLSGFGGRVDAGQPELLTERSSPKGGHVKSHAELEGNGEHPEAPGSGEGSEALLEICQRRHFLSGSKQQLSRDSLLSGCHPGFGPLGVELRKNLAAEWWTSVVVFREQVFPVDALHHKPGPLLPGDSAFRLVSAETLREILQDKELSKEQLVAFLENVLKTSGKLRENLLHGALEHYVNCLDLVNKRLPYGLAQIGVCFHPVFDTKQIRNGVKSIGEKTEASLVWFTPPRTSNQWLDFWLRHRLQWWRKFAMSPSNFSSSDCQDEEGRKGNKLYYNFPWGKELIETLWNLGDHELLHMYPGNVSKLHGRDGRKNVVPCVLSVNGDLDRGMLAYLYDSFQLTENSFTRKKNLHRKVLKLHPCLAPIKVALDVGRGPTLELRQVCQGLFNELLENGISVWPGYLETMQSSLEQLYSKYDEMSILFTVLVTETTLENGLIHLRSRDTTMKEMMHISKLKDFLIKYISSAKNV
Assay type: biochemical
Protocol: DNA Polymerization Assay to Monitor Effects on Human Wildtype POLγ and Four Disease-Causing Mutant Variants of Human POLγ.
The ability of small molecules to stimulate the polymerase activity of POLγ was analyzed in a quantitative fluorescence SYBR Green I assay with fluorescence intensity (FI) readout.
In the presence of dNTPs, wild type human POLγ and mutant derivatives thereof were incubated with single-stranded, circular M13mp18 ssDNA hybridized to a short DNA oligonucleotide that functions as a primer for initiation of DNA synthesis. POLγ and mutant derivatives thereof will extend the primer and use the M13mp18 molecule as a template to synthesize long stretches of double-stranded DNA. SYBR Green I, which is a double-stranded DNA-binding dye, was used to quantify formation of double-stranded DNA in the reaction. When bound to double-stranded DNA, SYBR Green I fluorescence increases by up to 100-fold.
The assay was performed in the 384-well plate format. Upon addition of compounds, changes in double-stranded DNA synthesis activity can be monitored by following effects on fluorescent intensity.
The reactions also contained the accessory POLγB subunit, and the human mitochondrial single-stranded DNA binding protein (mtSSB).
The DNA template mixture used in the assay contained 0.5 nM primed M13 mp18 ssDNA, 400 nM mtSSB, 0.1 mM Tris-HCl (pH 8.0), 0.1 mM dNTP, 10 mM MgCl2, 0.1 mg/mL BSA, 1 mM TCEP solution, and 0.02% Triton X-100. The DNA template mixture for the wild type protein contained either 100 μM dNTP, 1 μM dNTP, or 0.1 μM dNTP, designated in Table 2 as 100 μM, 1 μM, and 0.1 μM, respectfully.
Microplates with compounds (0.1 μL in each well) to be tested in the assay were prepared from 10 mM compound stocks in 100% DMSO, and equal amounts of DMSO without any compound were added to positive and negative control wells.
The protein mixture was dispensed (5 μL into each well) into compound plates and incubated at 37° C. for 15 minutes. After incubation, 5 μL of the DNA template mixture was dispensed into each well. The plates were then incubated at 37° C. for 2 hours.
During incubation, a combined stop buffer and detection reagent solution was prepared. The buffer contained 25 mM EDTA (pH 8.0), 0.02% Triton X-100, and SYBR Green I [Invitrogen] diluted 10,000× (for fluorescent readout). EDTA will stop the enzymatic reaction by chelating magnesium ions.

| SMILES | AC50 |
| --- | --- |
| Cc1cnc(-c2ccc(Cl)c(NS(=O)(=O)c3cc(C)c(Cl)cc3C)c2)s1 [Example 102, 4-chloro-N-(2-chloro-5-(5-methylthiazol-2-yl)phenyl)-2,5-dimethylbenzenesulfonamide] | > 100 µM |
| Cc1cnc(-c2cc(NS(=O)(=O)c3cc(C)c(Cl)cc3C)ccc2C)s1 [Example 103, 4-chloro-2,5-dimethyl-N-(4-methyl-3-(5-methylthiazol-2-yl)phenyl)benzenesulfonamide] | > 100 µM |
| Cc1cc(S(=O)(=O)Nc2cccc(C(=O)N3CCCC4(CC4)C3)c2)c(C)cc1Cl [Example 105, N-(3-(5-azaspiro[2.5]octane-5-carbonyl)phenyl)-4-chloro-2,5-dimethylbenzenesulfonamide] | > 100 µM |
| Cc1cc(S(=O)(=O)Nc2cccc(C(=O)N(C)c3ccccn3)c2)c(C)cc1Cl [Example 109, 3-((4-chloro-2,5-dimethylphenyl)sulfonamido)-N-methyl-N-(pyridin-2-yl)benzamide] | > 100 µM |
| Cc1cc(NS(=O)(=O)c2cc(C)c(Cl)cc2C)cc(-c2ncc(C)s2)c1 [Example 110, 4-chloro-2,5-dimethyl-N-(3-methyl-5-(5-methylthiazol-2-yl)phenyl)benzenesulfonamide] | > 100 µM |
| Cc1cnc(-c2cc(NS(=O)(=O)c3cc(C)c(Cl)cc3C)ccc2Cl)s1 [Example 111, 4-chloro-N-(4-chloro-3-(5-methylthiazol-2-yl)phenyl)-2,5-dimethylbenzenesulfonamide] | > 100 µM |
| Cc1cc(S(=O)(=O)Nc2cccc(C(=O)N(C(C)C)C3COC3)c2)c(C)cc1Cl [Example 112, 3-((4-chloro-2,5-dimethylphenyl)sulfonamido)-N-isopropyl-N-(oxetan-3-yl)benzamide] | > 100 µM |
| Cc1cc(S(=O)(=O)Nc2cccc(C(=O)N(CC(N)=O)C3CCCC3)c2)c(C)cc1Cl [Example 113, N-(2-amino-2-oxoethyl)-3-((4-chloro-2,5-dimethylphenyl)sulfonamido)-N-cyclopentylbenzamide] | > 100 µM |
| Cc1cc(S(=O)(=O)Nc2cccc(C(=O)N3C[C@@H](F)C[C@H](F)C3)c2)c(C)cc1Cl [Example 115, 4-chloro-N-(3-((3S,5S)-3,5-difluoropiperidine-1-carbonyl)phenyl)-2,5-dimethylbenzenesulfonamide] | > 100 µM |
| O=S(=O)(Nc1csc(-c2ccccc2)n1)c1ccc(Cl)cc1 [Example 120, 4-chloro-N-(2-phenylthiazol-4-yl)benzenesulfonamide] | > 100 µM |
| O=S(=O)(Nc1csc(-c2ccccc2)n1)c1cccnc1 [Example 121, N-(2-phenylthiazol-4-yl)pyridine-3-sulfonamide] | > 100 µM |

Other lines, results leading:

| AC50 | SMILES |
| --- | --- |
| > 100 µM | Cc1nc2c(NS(=O)(=O)c3cc(C)c(Cl)cc3C)cccc2s1 [Example 99, 4-chloro-2,5-dimethyl-N-(2-methylbenzo[d]thiazol-4-yl)benzenesulfonamide] |
| > 100 µM | Cc1cc(S(=O)(=O)N[C@@H]2CCCN(C(=O)[C@H]3CCCN3C)C2)c(C)cc1Cl [Example 100, 4-chloro-2,5-dimethyl-N-((R)-1-(methyl-D-prolyl)piperidin-3-yl)benzenesulfonamide] |
| > 100 µM | Cc1cc(S(=O)(=O)N[C@H]2CCCN(C(=O)[C@@H]3CCCN3C)C2)c(C)cc1Cl [Example 101, 4-chloro-2,5-dimethyl-N-((S)-1-(methyl-L-prolyl)piperidin-3-yl)benzenesulfonamide] |
| > 100 µM | Cc1cc(S(=O)(=O)N[C@@H]2CCCN(C(=O)[C@@H]3CCCN3C)C2)c(C)cc1Cl [Example 104, 4-chloro-2,5-dimethyl-N-((R)-1-(methyl-L-prolyl)piperidin-3-yl)benzenesulfonamide] |
| > 100 µM | Cc1cc(S(=O)(=O)Nc2cccc(C(=O)N3CCCOC(C)(C)C3)c2)c(C)cc1Cl [Example 106, 4-chloro-N-(3-(2,2-dimethyl-1,4-oxazepane-4-carbonyl)phenyl)-2,5-dimethylbenzenesulfonamide] |
| 28 µM | Cc1cc(S(=O)(=O)Nc2cccc(C(=O)N3CCc4cn[nH]c4C3)c2)c(C)cc1Cl [Example 107, 4-chloro-2,5-dimethyl-N-(3-(4,5,6,7-tetrahydro-1H-pyrazolo[3,4-c]pyridine-6-carbonyl)phenyl)benzenesulfonamide] |
| > 100 µM | Cc1cc(S(=O)(=O)Nc2cccc(C(=O)N3C[C@H](C)[C@@H](N)C3)c2)c(C)cc1Cl [Example 108, N-(3-((3R,4S)-3-amino-4-methylpyrrolidine-1-carbonyl)phenyl)-4-chloro-2,5-dimethylbenzenesulfonamide] |
| > 100 µM | Cc1cc(S(=O)(=O)Nc2cccc(C(=O)N3CCc4ncnc(C)c4C3)c2)c(C)cc1Cl [Example 114, 4-chloro-2,5-dimethyl-N-(3-(4-methyl-5,6,7,8-tetrahydropyrido [4,3-d]pyrimidine-6-carbonyl)phenyl)benzenesulfonamide] |
| > 100 µM | Cc1cc(Cl)ccc1S(=O)(=O)Nc1cccc(C(=O)N2CCC[C@H]2C)c1 [Example 116, (R)-4-chloro-2-methyl-N-(3-(2-methylpyrrolidine-1-carbonyl)phenyl)benzenesulfonamide] |
| > 100 µM | Cc1cc(S(=O)(=O)Nc2cccc(C(=O)N3CCC[C@H]3C)c2)ccc1Cl [Example 117, (R)-4-chloro-3-methyl-N-(3-(2-methylpyrrolidine-1-carbonyl)phenyl)benzenesulfonamide] |
| > 100 µM | C[C@@H]1CCCN1C(=O)c1cccc(NS(=O)(=O)c2ccc(C(F)(F)F)cc2)c1 [Example 118, (R)-N-(3-(2-methylpyrrolidine-1-carbonyl)phenyl)-4-(trifluoromethyl)benzenesulfonamide] |
| > 100 µM | Cc1cc(S(=O)(=O)Nc2cccc(C(=O)N3CCCC3)c2)c(C)cc1Cl [Example 119, 4-chloro-2,5-dimethyl-N-(3-(pyrrolidine-1-carbonyl)phenyl) benzenesulfonamide] |
